Measured values: patent US20040166137A1, “Hetero-substituted benzimidazole compounds and antiviral uses thereof” (priority 2002, published 2004)

Assays:
[1] = system: rhinoviruses; settings: cited from earlier work
[2] = system: RSV; test: Antiviral assay (PRA): inhibition of RSV syncytial plaque formation on Hep2 cell monolayers; assay type: cell-based; settings: human respiratory syncytial virus, HEp-2; Table 2; RSV-infected Hep2 cells, 48 hours, syncytia counted; read-out: PRA (IC50)
Protocol: The lower the observed level of fusion, the greater the antiviral activity of the compound was determined to be. Uninfected confluent monolayers (seeded at 2.2×10^4 cells/well) of Hep2 cells were grown in microtiter wells (96-well plates) in EMEM (Eagle Minimum Essential Medium w/o L-glutamine [Bio Whittaker Cat. […] Bio Whittaker Cat. No. 14-[…]), antibiotics (penicillin/streptomycin; Bio Whittaker Cat. […] The plates were incubated for 24 hours and used for antiviral assays and cytotoxicity assays. To prepare Hep2 cells for addition to uninfected cells, cultures of […] infected Hep2 cells were washed with DPBS (Dulbecco's Phosphate Buffered Saline w/o calcium or magnesium; Bio Whittaker Cat. […] Gibco Life Technologies Cat. No. 15040-017). The cells were spun for 10 minutes and resuspended in 3% FBS. Cell counts were performed using a hemacytometer. Persistent cells were added to the uninfected Hep2 cells. The antiviral assay was conducted by first removing all medium from the wells containing uninfected Hep2 cells, adding 100 μl complete EMEM, then adding hetero-substituted benzimidazole compounds (eight 3-fold dilutions with 20 μM concentration as the highest final concentration) in 50 μl complete EMEM. Approximately 50 […] plaque forming units (PFU) of RSV in 50 μl was added per well and the plates were incubated in a CO2 incubator at 37° C. for 48 hours. Each plate contained uninfected control wells and infected untreated control wells for calculation of % inhibition (EC50) for each concentration. After incubation, cells in control wells were checked for fusion centers, medium was removed from the wells followed by addition to each well of either Crystal Violet stain or XTT. With respect to Crystal Violet, approximately 50μl 0.25% Crystal Violet stain in methanol was added to each well. The wells were rinsed immediately, to remove excess stain, and were allowed to dry. The number of syncytia per well were then counted, using a dissecting microscope. For antiviral assays at 48 hours post infection, cells in control wells were checked for syncytial plaques. Medium was removed from the wells followed by addition of approximately 50 Al Crystal Violet stain (0.25% Crystal Violet, 0.25% Giemsa dissolved in 10% formaldehyde, 70% methanol, and 20% H2O). The wells were incubated at room temperature for 5 minutes, rinsed with H2O to remove excess stain, and allowed to dry. The number of syncytia per well were counted using a dissecting microscope. The 50% inhibitory concentration (EC50) for each compound was calculated from the dose response curve. The compounds listed in Tables 1-2 have been screened for inhibitory activity against RSV.

[3] = XTT cytotoxicity assay on uninfected Hep2 cells; assay type: cell-based; settings: human
Protocol: Uninfected confluent monolayers (seeded at 2.2×10^4 cells/well) of Hep2 cells were grown in microtiter wells (96-well plates) in EMEM (Eagle Minimum Essential Medium w/o L-glutamine [Bio Whittaker Cat. No. 12-125F] with 3% fetal bovine serum (FBS; which had been heat inactivated for 30 minutes at 56° C.; Bio Whittaker Cat. No. 14-501F), antibiotics (penicillin/streptomycin; Bio Whittaker Cat. No. 17-602E) added at 1%, and glutamine added at 1% (complete EMEM). The plates were incubated for 24 hours and used for antiviral assays and cytotoxicity assays.
Cytotoxicity assays were conducted by first removing all medium from the well containing uninfected Hep2 cells, adding 100 μl complete EMEM, and then adding hetero-substituted benzimidazole compounds (eight 3-fold dilutions with 100 μM concentration as the highest final concentration). Complete EMEM (50 μl) was added to each well instead of virus and the plates were incubated in a CO2 incubator at 37° C. for 48 hours.
At 48 hours, the cytotoxicity assays were developed by adding to each well 50 μl of XTT (1 mg/ml in PBS) containing 0.01-0.02 mM of the electron coupling agent phenazine methosulfate (PMS). The plates were incubated for 2-4 hours at 37° C. and then read in a 96-well plate reader at 450 nm. Plotting the % average OD of treated wells compared to the cell control vs. compound concentration generated dose response curves. CC50 (50% inhibitory cytotoxic concentration) values for each compound were then calculated from these curves. […]

Question: With `COc1ccc2nc[nH]c2c1` [5-methoxybenzimidazole] as the compound, how does the “inhibition of the cytopathic effect” value [1] read?
Answer: 100%

Question: For `Cc1nn(C)c(Cl)c1S(=O)(=O)N1CCN(Cc2nc3cccnc3n2Cc2nc3ccccc3[nH]2)CC1` [compound 29, 3-(1H-Benzoimidazol-2-ylmethyl)-2-[4-(5-chloro-1,3-dimethyl-1H-pyrazole-4-sulfonyl)-piperazin-1-ylmethyl]-3H-imidazo[4,5-b]pyridine], which IC50 [2] is on record?
Answer: 200 nM

Question: What about the CC50 at 48 h [3] of the same compound?
Answer: ≥ 100000 nM

Question: For `O=S(=O)(c1ccc(F)cc1F)N1CCN(Cc2nc3cccnc3n2Cc2nc3ccccc3[nH]2)CC1` [compound 30, 3-(1H-Benzoimidazol-2-ylmethyl)-2-[4-(2,4-difluoro-benzenesulfonyl)-piperazin-1-ylmethyl]-3H-imidazo[4,5-b]pyridine], which IC50 [2] is on record?
Answer: 10 nM

Question: And the CC50 at 48 h [3]?
Answer: ≥ 100000 nM

Question: With `O=S(=O)(c1ccsc1)N1CCN(Cc2nc3cccnc3n2Cc2nc3ccccc3[nH]2)CC1` [compound 31, 3-(1H-Benzoimidazol-2-ylmethyl)-2-[4-(thiophene-3-sulfonyl)-piperazin-1-ylmethyl]-3H-imidazo[4,5-b]pyridine] as the compound, how does the IC50 [2] read?
Answer: 10 nM

Question: What about the CC50 at 48 h [3] of the same compound?
Answer: ≥ 100000 nM
